Laboratory results reported in EPA's CvTdb concentration-time database.

Experiments:
Rat [1] = experiment: concentration in plasma after dosing
Rat [2] = experiment: concentration in brain after dosing; conditions: dosed: Perfluorodecanoic acid, 10 mg/kg, oral
Rat [3] = experiment: concentration in plasma after dosing; conditions: dosed: Perfluorodecanoic acid, 2 mg/kg, iv, Male, F344
Rat [4] = experiment: concentration in liver after dosing
Rat [5] = experiment: concentration in kidney after dosing; conditions: dosed: Perfluorodecanoic acid, 10 mg/kg, oral
Rat [6] = experiment: concentration in plasma after dosing; conditions: 18 h; dosed: Primidone; 30 mg/kg; oral; Male; F344
Rat [7] = experiment: concentration in plasma after dosing; conditions: 0.25 h; dosed: Primidone; 30 mg/kg; oral; Male; F344
Rat [8] = experiment: concentration in liver after dosing; conditions: 2 h; dosed: Thiodiglycolic Acid; 20 mg/kg; iv; Male; Harlan Sprague Dawley
Rat [9] = experiment: concentration in thymus after dosing; conditions: 8 h; dosed: Thiodiglycolic Acid; 20 mg/kg; iv; Female; Harlan Sprague Dawley
Rat [10] = experiment: concentration in thymus after dosing; conditions: dosed: Thiodiglycolic Acid, 20 mg/kg, iv
Rat [11] = experiment: concentration in liver after dosing; conditions: 5.333 h; dosed: Thiodiglycolic Acid; 20 mg/kg; iv; Female; Harlan Sprague Dawley
Rat [12] = experiment: concentration in liver after dosing; conditions: 20 min; dosed: Thiodiglycolic Acid; 20 mg/kg; iv; Female; F344
Rat [13] = experiment: concentration in heart after dosing; conditions: dosed: Thiodiglycolic Acid, 20 mg/kg, iv
Rat [14] = experiment: concentration in plasma after dosing; conditions: dosed: dichloroacetic acid, 100 mg/kg, oral, Male, F344

O=C(O)C(F)(F)C(F)(F)C(F)(F)C(F)(F)C(F)(F)C(F)(F)C(F)(F)C(F)(F)C(F)(F)F [Perfluorodecanoic acid]
dosed: Perfluorodecanoic acid
Conditions	concentration in liver [ng/g]	concentration in plasma [µg/mL]
Rat [1], 0.5 h, 2 mg/kg, oral, Male, Harlan Sprague Dawley	–	1.65
Rat [1], 1 h, 2 mg/kg, iv, Male, F344	–	5.65
Rat [1], 1 h, 2 mg/kg, oral, Male, Harlan Sprague Dawley	–	3.17
Rat [1], 2 h, 2 mg/kg, oral, Male, Harlan Sprague Dawley	–	3.96
Rat [1], 5 min, 2 mg/kg, iv, Female, Harlan Sprague-Dawley	–	7.65
Rat [1], 5 min, 2 mg/kg, iv, Male, F344	–	7.38
Rat [1], 6 h, 2 mg/kg, iv, Male, F344	–	5.65
Rat [1], 12 h, 2 mg/kg, iv, Female, Harlan Sprague-Dawley	–	5.32
Rat [1], 12 h, 2 mg/kg, iv, Male, F344	–	6.2
Rat [1], 12 h, 2 mg/kg, oral, Male, Harlan Sprague Dawley	–	7.68
Rat [1], 24 h, 2 mg/kg, iv, Male, F344	–	4.85
Rat [1], 24 h, 2 mg/kg, oral, Male, Harlan Sprague Dawley	–	6.97
Rat [1], 192 h, 2 mg/kg, iv, Female, Harlan Sprague-Dawley	–	5.74
Rat [1], 192 h, 2 mg/kg, iv, Male, F344	–	2.77
Rat [1], 192 h, 2 mg/kg, oral, Male, Harlan Sprague Dawley	–	4.85
Rat [1], 528 h, 2 mg/kg, iv, Male, F344	–	2.24
Rat [1], 528 h, 2 mg/kg, oral, Male, Harlan Sprague Dawley	–	2.64
Rat [1], 864 h, 2 mg/kg, iv, Male, F344	–	1.23
Rat [1], 1200 h, 2 mg/kg, iv, Female, Harlan Sprague-Dawley	–	2.25
Rat [1], 1200 h, 2 mg/kg, iv, Male, F344	–	0.719
Rat [1], 1200 h, 2 mg/kg, oral, Male, Harlan Sprague Dawley	–	1.7
Rat [1], 1848 h, 2 mg/kg, iv, Male, F344	–	0.437
Rat [1], 1848 h, 2 mg/kg, oral, Male, Harlan Sprague Dawley	–	0.907
Rat [1], 2520 h, 2 mg/kg, iv, Male, F344	–	0.124
Rat [1], 2520 h, 2 mg/kg, oral, Male, Harlan Sprague Dawley	–	0.687
Rat [1], 3360 h, 2 mg/kg, iv, Male, F344	–	0.277
Rat [1], 3360 h, 2 mg/kg, oral, Male, Harlan Sprague Dawley	–	0.498
Rat [4], 1 h, 10 mg/kg, oral, Female, Harlan Sprague Dawley	43800	–
Rat [4], 1 h, 10 mg/kg, oral, Male, Harlan Sprague Dawley	56500	–
Rat [4], 24 h, 10 mg/kg, oral, Female, Harlan Sprague Dawley	102000	–
Rat [4], 24 h, 10 mg/kg, oral, Male, Harlan Sprague Dawley	107000	–
Rat [4], 24 h, 10 mg/kg, oral, Male, Harlan Sprague Dawley - this seems too small	125000	–
Rat [4], 864 h, 10 mg/kg, oral, Female, Harlan Sprague Dawley	45900	–
Rat [4], 864 h, 10 mg/kg, oral, Male, Harlan Sprague Dawley	56700	–
Rat [4], 1848 h, 10 mg/kg, oral, Female, Harlan Sprague Dawley	21200	–
Rat [4], 1848 h, 10 mg/kg, oral, Male, Harlan Sprague Dawley	32600	–
Rat [4], 3360 h, 10 mg/kg, oral, Female, Harlan Sprague Dawley	7920	–
Rat [4], 3360 h, 10 mg/kg, oral, Male, Harlan Sprague Dawley	9980	–

Conditions	concentration in brain, Rat [2] [ng/g]	concentration in kidney, Rat [5] [ng/g]
1 h, Female, Harlan Sprague Dawley	581	18100
1 h, Male, Harlan Sprague Dawley	–	12400
24 h, Female, Harlan Sprague Dawley	2750	46800
24 h, Male, Harlan Sprague Dawley	2360	24600
24 h, Male, Harlan Sprague Dawley - this seems too small	2580	29500
864 h, Female, Harlan Sprague Dawley	926	18300
864 h, Male, Harlan Sprague Dawley	1240	11100
1848 h, Female, Harlan Sprague Dawley	526	5210
1848 h, Male, Harlan Sprague Dawley	602	4000
3360 h, Female, Harlan Sprague Dawley	–	2740
3360 h, Male, Harlan Sprague Dawley	–	1530

Rat [3]
Conditions	concentration in plasma [ng/mL]
1 h	6890
528 h	4990
3360 h	662

CCC1(c2ccccc2)C(=O)NC(=O)NC1=O [Phenobarbital]
concentration in plasma [µg/mL], Rat [1], dosed: Primidone, oral
Conditions	0.25 h	0.5 h	1.5 h	3 h	6 h	9 h	12 h	18 h	22 h	30 h
30 mg/kg, Female, F344	–	–	0.41	0.54	1.06	0.9	1.11	0.86	0.93	–
30 mg/kg, Male, F344	0.3	0.33	2.03	2.98	3.51	2.72	2.43	1.66	1.06	–
80 mg/kg, Female, F344	–	–	0.63	1.1	1.96	2.19	1.98	1.96	1.5	–
80 mg/kg, Female, Harlan Sprague-Dawley	0.34	0.93	–	–	–	–	5.66	–	–	–
80 mg/kg, Male, F344	–	–	3.33	3.62	6.53	7.43	–	4.02	2.87	–
130 mg/kg, Female, F344	–	0.96	0.87	4.5	9.67	3.05	9.03	–	2.04	1.92
130 mg/kg, Female, Harlan Sprague-Dawley	–	–	4.09	–	–	–	–	–	–	–
130 mg/kg, Male, F344	–	–	4.15	–	7.7	9.61	–	–	4.12	2.26
130 mg/kg, Male, Harlan Sprague Dawley	–	–	–	0.84	–	–	2.49	–	–	–

Conditions	concentration in plasma [µg/mL]
Rat [6]	1.54
Rat [7]	0.34

O=C(O)CSCC(=O)O [Thiodiglycolic Acid]
dosed: Thiodiglycolic Acid, 20 mg/kg, iv
Conditions	concentration in liver, Rat [4] [ng/g]	concentration in plasma, Rat [1] [µg/mL]
1 h, Female, Harlan Sprague Dawley	71500	8.5
1 h, Male, Harlan Sprague Dawley	107000	1.34
2 h, Female, Harlan Sprague Dawley	21800	1.22
2 h, Male, Harlan Sprague Dawley	108000	0.751
3 h, Female, Harlan Sprague Dawley	9460	0.52
3 h, Male, Harlan Sprague Dawley	50900	0.553
4 h, Female, Harlan Sprague Dawley	2680	0.229
4 h, Male, Harlan Sprague Dawley	45400	0.332
5.333 h, Female, Harlan Sprague Dawley	2410	0.302
5.333 h, Male, Harlan Sprague Dawley	29400	0.247
6.667 h, Female, Harlan Sprague Dawley	2220	–
8 h, Female, Harlan Sprague Dawley	246	0.2
10 h, Female, Harlan Sprague Dawley	7570	–
10 h, Male, F344	4770	0.215
10 min, Female, Harlan Sprague Dawley	75000	37.5
10 min, Male, F344	148000	25.6
20 min, Female, F344	198000	6.7
20 min, Female, Harlan Sprague Dawley	11000	9.23
40 min, Female, Harlan Sprague Dawley	49400	3.52
40 min, Male, Harlan Sprague Dawley	190000	1.81

Conditions	concentration in liver [ng/g]	concentration in thymus [ng/g]
Rat [8]	80300	–
Rat [9]	–	544
Rat [11]	47900	–
Rat [12]	162000	–

Conditions	concentration in heart, Rat [13] [ng/g]	concentration in thymus, Rat [10] [ng/g]
1 h, Female, Harlan Sprague Dawley	1670	2560
1 h, Male, Harlan Sprague Dawley	1760	2750
2 h, Female, Harlan Sprague Dawley	1120	1650
2 h, Male, Harlan Sprague Dawley	1340	1940
3 h, Female, Harlan Sprague Dawley	562	1060
3 h, Male, Harlan Sprague Dawley	1040	1370
4 h, Female, Harlan Sprague Dawley	414	708
4 h, Male, Harlan Sprague Dawley	476	939
5.333 h, Female, Harlan Sprague Dawley	232	399
5.333 h, Male, Harlan Sprague Dawley	388	715
6.667 h, Female, Harlan Sprague Dawley	238	236
8 h, Female, Harlan Sprague Dawley	328	487
10 h, Female, Harlan Sprague Dawley	–	215
10 h, Male, F344	362	358
10 min, Female, Harlan Sprague Dawley	8480	8190
10 min, Male, F344	6870	10000
20 min, Female, F344	4000	3960
20 min, Female, Harlan Sprague Dawley	4770	4460
40 min, Female, Harlan Sprague Dawley	2650	3000
40 min, Male, Harlan Sprague Dawley	2660	2890

O=C(O)C(Cl)Cl [dichloroacetic acid]
Rat [1], dosed: dichloroacetic acid
Conditions	concentration in plasma [µg/mL]
0.25 h, 10 mg/kg, oral, Male, Harlan Sprague Dawley	1.6
0.25 h, 100 mg/kg, oral, Male, F344	24.9
0.5 h, 10 mg/kg, oral, Male, Harlan Sprague Dawley	0.224
1 h, 40 mg/kg, oral, Female, Harlan Sprague Dawley	5.91
1 h, 60 mg/kg, iv, Female, Harlan Sprague-Dawley	23.2
1.25 h, 40 mg/kg, oral, Female, Harlan Sprague Dawley	3.6
1.25 h, 100 mg/kg, oral, Male, F344	22.9
1.5 h, 40 mg/kg, oral, Female, Harlan Sprague Dawley	4.5
2 h, 40 mg/kg, oral, Female, Harlan Sprague Dawley	2.2
2 h, 60 mg/kg, iv, Female, Harlan Sprague-Dawley	1.67
2 h, 100 mg/kg, oral, Male, F344	44.6
2 min, 10 mg/kg, iv, Male, F344	23.5
2 min, 10 mg/kg, oral, Male, Harlan Sprague Dawley	0.222
2 min, 40 mg/kg, oral, Female, Harlan Sprague Dawley	1.53
2 min, 100 mg/kg, oral, Male, F344	1.59
4 h, 100 mg/kg, oral, Male, F344	49.6
5 min, 10 mg/kg, iv, Male, F344	15.3
5 min, 10 mg/kg, oral, Male, Harlan Sprague Dawley	0.822
5 min, 40 mg/kg, oral, Female, Harlan Sprague Dawley	3.1
5 min, 100 mg/kg, oral, Male, F344	7.76
6 h, 100 mg/kg, oral, Male, F344	25
8 h, 100 mg/kg, oral, Male, F344	48.3
10 min, 10 mg/kg, iv, Male, F344	7.72
10 min, 10 mg/kg, oral, Male, Harlan Sprague Dawley	1.45
10 min, 40 mg/kg, oral, Female, Harlan Sprague Dawley	9.87
10 min, 100 mg/kg, oral, Male, F344	11.8
20 min, 10 mg/kg, iv, Male, F344	1.84
20 min, 10 mg/kg, oral, Male, Harlan Sprague Dawley	0.829
20 min, 40 mg/kg, oral, Female, Harlan Sprague Dawley	5.35
20 min, 100 mg/kg, oral, Male, F344	5.62
40 min, 10 mg/kg, oral, Male, Harlan Sprague Dawley	0.184
40 min, 40 mg/kg, oral, Female, Harlan Sprague Dawley	13.9
40 min, 100 mg/kg, oral, Male, F344	53.8
50 min, 10 mg/kg, oral, Male, Harlan Sprague Dawley	0.17

Rat [14]
Conditions	concentration in plasma [µg/mL]
8 h	25
20 min	15.9
